The record followed here is PubChem BioAssay AID1963840 (Molecular Pharmacology Branch, DTP, NCI, 2024).

SMILES strings stand for the structures.
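Further: spheroids exposed to compounds for seven days.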

The first assay concerns 695427-040-R-J1-PDC complex spheroid viability. In words: Anticancer human tumor 695427-040-R-J1-PDC patient-derived colon adenocarcinoma cell line growth inhibition [POLQ]. Particulars: second compound 0.316 µM; first compound 1 µM; active compounds read low. As for the experimental part:
Multicellular complex tumor spheroid response to Polymerase (POL) inhibitors (novobiocin, ART-558, RP6685) in combination with a variety of drugs and investigational agents in selected tumor cell lines
The POL inhibitors (novobiocin, ART-558, and RP6685) were evaluated both individually and in combination with standard of care and investigational anticancer small molecules within a complex spheroid model of solid tumors. . Complex spheroids include a stromal component modeled by human endothelial cells (HUVEC) and fibroblasts modeled by human mesenchymal stem cells (MSCs). The concentration ranges selected for each drug and investigational agent were based upon clinically achievable concentrations if the clinical Cmax of the agent was known.
Compounds. The drugs and investigational agents: novobiocin (NSC847541), ART-558 (NSC835418), RP-6685 (NSC848927), peposertib (NSC802822), ceralasertib (NSC780249), elimusertib (NSC800525), camonsertib (NSC841442), AZD-1390 (NSC803789), olaparib (NSC753686), talazoparib (NSC767125), rucaparib (NSC756644), sotorasib (NSC818433), MRTX-1133 (NSC836407), SN-38 (NSC673596), topotecan (NSC609699), epotoside (NSC141540), doxorubicin (NSC123127), gemcitabine (NSC613327), 5-fluorouracil (NSC19893), paclitaxel (NSC125973), vemurafenib (NSC761431), MSA-2 (NSC828583), SN-011 (NSC837082), adavosertib (NSC754352), prexasertib (NSC758257), carboplatin (NSC241240) and oxaliplatin (NSC266046), were obtained from the National Cancer Institute (NCI) Developmental Therapeutics Program Chemical Repository (21). The FDA-approved anticancer drug set is available from the Developmental Therapeutics Program at https://dtp.cancer.gov/organization/dscb/obtaining/. […] The stock solutions were prepared in dimethyl sulfoxide (DMSO, Sigma-Aldrich, St. Louis, MO, cat. D2650), except for the platinum compounds which were prepared in saline (Quality Biological, Gaithersburg, MD, cat. 114-055-101), at 800-fold the tested concentration and stored at -70 degrees C prior to their use. All drugs and investigational agents were tested over a range starting from a high concentration at or near the clinical Cmax and decreasing in half-log increments. If the clinical Cmax for an agent had not been determined, the highest concentration tested was 10 microM, except for SN-38, which was tested at a high concentration of 1 microM.
Cell Culture. All cells were maintained in an incubator at 37 degrees C and 5% CO2 with 95% humidity. The PDC lines were cultured according to standard operating procedures established by the NCI PDMR (https://pdmr.cancer.gov). Table 3 of the manuscript, lists the cell lines along with the number of the three cell types plated to form the mct-spheroids and media for tumor cell growth. After thawing, all PDC lines, except 997537-175-T-J1-PDC and 415267-285-R-J2-PDC, were cultured in Matrigel-coated flasks prepared with a working solution of 1X Ham's F-12 nutrient mix, without supplementation (Thermo Fisher Scientific, cat. 11765054), 100 U/mL penicillin-streptomycin (Thermo Fisher Scientific, cat. 15140122), and 2.5% Matrigel (Corning Inc., Corning, NY, cat. 354248) for the first three passages. The two PDC lines 997537-175-T-J1-PDC and 415267-285-R-J2-PDC were cultured on uncoated flasks. The 857933-349-R-J2-PDC line was cultured in 6C/Colon 1B media containing advanced DMEM/F-12 (Thermo Fisher Scientific, cat. 12634028), 10 mM HEPES (Thermo Fisher Scientific, cat. 15630080), 1X GlutaMAX supplement (Thermo Fisher Scientific, cat. 35050061), 0.1 mg/mL primocin (InvivoGen, San Diego, CA, cat. ant-pm-2), 10% defined fetal bovine serum, heat inactivated (HyClone Laboratories Inc., Logan, UT, cat. SH30070.03HI), 50% L-WRN conditioned media (ATCC, cat. CRL-3276), 1.25 mM N-Acetyl-L-cysteine (Sigma-Aldrich, cat. A9165), 10 mM nicotinamide (Sigma-Aldrich, cat. N0636), 1X B-27 supplement (Thermo Fisher Scientific, cat. 17504044), 1X N-2 supplement (Thermo Fisher Scientific, cat. […]
As for `COc1cc2cc(C(=O)CCC(=O)O)sc2cc1OC` + Cc1cccc(N(C)C(=O)C2C(O)CCN2c2nc(C)cc(C(F)(F)F)c2C#N)c1, the viability, T/C was 108%.

`O=C(Nc1ccc(O)c(NS(=O)(=O)c2ccc(F)cc2)c1)c1ccc(-c2ccccc2)cc1` + Cc1cccc(N(C)C(=O)C2C(O)CCN2c2nc(C)cc(C(F)(F)F)c2C#N)c1: the viability, T/C was 101%.

In the case of `Nc1ccn(C2OC(CO)C(O)C2(F)F)c(=O)n1` (stereo unspecified) + Nc1ccc(C#CCN(C(=O)Cc2ncc(C(F)(F)F)cc2C(F)(F)F)c2ccc(F)cc2)nn1, the viability, T/C was 78%.

The same assay, now with this note: second compound 0.316 µM; first compound 3.16 µM; active compounds read low.
As to `COc1cc2cc(C(=O)CCC(=O)O)sc2cc1OC` + Cc1cccc(N(C)C(=O)C2C(O)CCN2c2nc(C)cc(C(F)(F)F)c2C#N)c1, the viability, T/C was 114%.

As for `O=C(Nc1ccc(O)c(NS(=O)(=O)c2ccc(F)cc2)c1)c1ccc(-c2ccccc2)cc1` + Cc1cccc(N(C)C(=O)C2C(O)CCN2c2nc(C)cc(C(F)(F)F)c2C#N)c1, the viability, T/C is 111%.

For the compound `Nc1ccn(C2OC(CO)C(O)C2(F)F)c(=O)n1` (stereo unspecified) + Nc1ccc(C#CCN(C(=O)Cc2ncc(C(F)(F)F)cc2C(F)(F)F)c2ccc(F)cc2)nn1, the viability, T/C was 79%.

The same assay, now with this note: second compound 0.316 µM; first compound 10 µM; active compounds read low.
`COc1cc2cc(C(=O)CCC(=O)O)sc2cc1OC` + Cc1cccc(N(C)C(=O)C2C(O)CCN2c2nc(C)cc(C(F)(F)F)c2C#N)c1: the viability, T/C is 100%.

With `O=C(Nc1ccc(O)c(NS(=O)(=O)c2ccc(F)cc2)c1)c1ccc(-c2ccccc2)cc1` + Cc1cccc(N(C)C(=O)C2C(O)CCN2c2nc(C)cc(C(F)(F)F)c2C#N)c1, the viability, T/C is 86.9%.

For `Nc1ccn(C2OC(CO)C(O)C2(F)F)c(=O)n1` (stereo unspecified) + Nc1ccc(C#CCN(C(=O)Cc2ncc(C(F)(F)F)cc2C(F)(F)F)c2ccc(F)cc2)nn1, the viability, T/C was 68.1%.

The assay is the same for the next values; noted with them: second compound 1 µM; first compound 0.0316 µM; active compounds read low.
`COc1cc2cc(C(=O)CCC(=O)O)sc2cc1OC` + Cc1cccc(N(C)C(=O)C2C(O)CCN2c2nc(C)cc(C(F)(F)F)c2C#N)c1: the viability, T/C was 108%.

Take `O=C(Nc1ccc(O)c(NS(=O)(=O)c2ccc(F)cc2)c1)c1ccc(-c2ccccc2)cc1` + Cc1cccc(N(C)C(=O)C2C(O)CCN2c2nc(C)cc(C(F)(F)F)c2C#N)c1: the viability, T/C is 109%.

As to `Nc1ccn(C2OC(CO)C(O)C2(F)F)c(=O)n1` (stereo unspecified) + Nc1ccc(C#CCN(C(=O)Cc2ncc(C(F)(F)F)cc2C(F)(F)F)c2ccc(F)cc2)nn1, the viability, T/C is 104%.

Staying with this assay, now noted: second compound 1 µM; first compound 0.1 µM; active compounds read low.
Regarding `COc1cc2cc(C(=O)CCC(=O)O)sc2cc1OC` + Cc1cccc(N(C)C(=O)C2C(O)CCN2c2nc(C)cc(C(F)(F)F)c2C#N)c1, the viability, T/C is 101%.

On to `O=C(Nc1ccc(O)c(NS(=O)(=O)c2ccc(F)cc2)c1)c1ccc(-c2ccccc2)cc1` + Cc1cccc(N(C)C(=O)C2C(O)CCN2c2nc(C)cc(C(F)(F)F)c2C#N)c1, for which the viability, T/C was 95.9%.

With `Nc1ccn(C2OC(CO)C(O)C2(F)F)c(=O)n1` (stereo unspecified) + Nc1ccc(C#CCN(C(=O)Cc2ncc(C(F)(F)F)cc2C(F)(F)F)c2ccc(F)cc2)nn1, the viability, T/C is 90.9%.

The assay is the same for the next values; noted with them: second compound 1 µM; first compound 0.316 µM; active compounds read low.
As for `COc1cc2cc(C(=O)CCC(=O)O)sc2cc1OC` + Cc1cccc(N(C)C(=O)C2C(O)CCN2c2nc(C)cc(C(F)(F)F)c2C#N)c1, the viability, T/C is 108%.

`O=C(Nc1ccc(O)c(NS(=O)(=O)c2ccc(F)cc2)c1)c1ccc(-c2ccccc2)cc1` + Cc1cccc(N(C)C(=O)C2C(O)CCN2c2nc(C)cc(C(F)(F)F)c2C#N)c1: the viability, T/C was 101%.

For `Nc1ccn(C2OC(CO)C(O)C2(F)F)c(=O)n1` (stereo unspecified) + Nc1ccc(C#CCN(C(=O)Cc2ncc(C(F)(F)F)cc2C(F)(F)F)c2ccc(F)cc2)nn1, the viability, T/C was 89.4%.

The same assay, now with this note: second compound 1 µM; first compound 1 µM; active compounds read low.
As to `COc1cc2cc(C(=O)CCC(=O)O)sc2cc1OC` + Cc1cccc(N(C)C(=O)C2C(O)CCN2c2nc(C)cc(C(F)(F)F)c2C#N)c1, the viability, T/C was 98.9%.

For the compound `O=C(Nc1ccc(O)c(NS(=O)(=O)c2ccc(F)cc2)c1)c1ccc(-c2ccccc2)cc1` + Cc1cccc(N(C)C(=O)C2C(O)CCN2c2nc(C)cc(C(F)(F)F)c2C#N)c1, the viability, T/C is 94.4%.

For `Nc1ccn(C2OC(CO)C(O)C2(F)F)c(=O)n1` (stereo unspecified) + Nc1ccc(C#CCN(C(=O)Cc2ncc(C(F)(F)F)cc2C(F)(F)F)c2ccc(F)cc2)nn1, the viability, T/C was 78.8%.

The same assay, now with this note: second compound 1 µM; first compound 3.16 µM; active compounds read low.
As to `COc1cc2cc(C(=O)CCC(=O)O)sc2cc1OC` + Cc1cccc(N(C)C(=O)C2C(O)CCN2c2nc(C)cc(C(F)(F)F)c2C#N)c1, the viability, T/C was 103%.

Consider `O=C(Nc1ccc(O)c(NS(=O)(=O)c2ccc(F)cc2)c1)c1ccc(-c2ccccc2)cc1` + Cc1cccc(N(C)C(=O)C2C(O)CCN2c2nc(C)cc(C(F)(F)F)c2C#N)c1, for which the viability, T/C is 115%.

Take `Nc1ccn(C2OC(CO)C(O)C2(F)F)c(=O)n1` (stereo unspecified) + Nc1ccc(C#CCN(C(=O)Cc2ncc(C(F)(F)F)cc2C(F)(F)F)c2ccc(F)cc2)nn1: the viability, T/C was 80.7%.

The assay is the same for the next values; noted with them: second compound 1 µM; first compound 10 µM; active compounds read low.
Consider `COc1cc2cc(C(=O)CCC(=O)O)sc2cc1OC` + Cc1cccc(N(C)C(=O)C2C(O)CCN2c2nc(C)cc(C(F)(F)F)c2C#N)c1, for which the viability, T/C was 88.8%.

Consider `O=C(Nc1ccc(O)c(NS(=O)(=O)c2ccc(F)cc2)c1)c1ccc(-c2ccccc2)cc1` + Cc1cccc(N(C)C(=O)C2C(O)CCN2c2nc(C)cc(C(F)(F)F)c2C#N)c1, for which the viability, T/C was 92.3%.

As for `Nc1ccn(C2OC(CO)C(O)C2(F)F)c(=O)n1` (stereo unspecified) + Nc1ccc(C#CCN(C(=O)Cc2ncc(C(F)(F)F)cc2C(F)(F)F)c2ccc(F)cc2)nn1, the viability, T/C was 63.7%.

The assay is the same for the next values; noted with them: second compound 3.16 µM; first compound 0.0316 µM; active compounds read low.
On to `COc1cc2cc(C(=O)CCC(=O)O)sc2cc1OC` + Cc1cccc(N(C)C(=O)C2C(O)CCN2c2nc(C)cc(C(F)(F)F)c2C#N)c1, for which the viability, T/C was 96.7%.

On to `O=C(Nc1ccc(O)c(NS(=O)(=O)c2ccc(F)cc2)c1)c1ccc(-c2ccccc2)cc1` + Cc1cccc(N(C)C(=O)C2C(O)CCN2c2nc(C)cc(C(F)(F)F)c2C#N)c1, for which the viability, T/C is 97.6%.

As for `Nc1ccn(C2OC(CO)C(O)C2(F)F)c(=O)n1` (stereo unspecified) + Nc1ccc(C#CCN(C(=O)Cc2ncc(C(F)(F)F)cc2C(F)(F)F)c2ccc(F)cc2)nn1, the viability, T/C was 102%.

The same assay, now with this note: second compound 3.16 µM; first compound 0.1 µM; active compounds read low.
Take `COc1cc2cc(C(=O)CCC(=O)O)sc2cc1OC` + Cc1cccc(N(C)C(=O)C2C(O)CCN2c2nc(C)cc(C(F)(F)F)c2C#N)c1: the viability, T/C is 98.3%.

Usually viability, T/C stands for the ratio of treated to control.
